pIC50: −log10 of the molar value.
Key:
K562 cells = test: Cell Titer Glo 2.0 cell viability (toxicity) assay, K562; conditions: 500 cells/well, 72 hours
SMN2 mRNA = test: RT-qPCR splicing assay, SMN2 mRNA; assay type: cell-based, human; conditions: Homo sapiens, canonical junction qPCR panel, Table 4; read-out: SMN2 IC50 (decrease in CJ mRNA levels)
Method in brief: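 A673 or K562 cells treated 24 h at 37 °C with 11-point 3-fold dilutions (top final 10 uM, DMSO ≤0.25%). Lysates analysed by one-step RT-qPCR for canonical (CJ) and alternative-exon (AJ) junctions, normalized to GAPDH, GUSB or PPIA. ΔΔCt vs DMSO, RQ = 2^(−ΔΔCt), expressed as percentage response.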

Target C = test: RT-qPCR canonical junction panel assay, Target C mRNA; assay type: cell-based; conditions: Table 4, read-out: Target C IC50 (decrease in CJ mRNA levels)
Method in brief: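 A673 or K562 cells treated with compound; CJ mRNA quantified by junction-spanning RT-qPCR probe after cDNA synthesis, normalised to GAPDH, GUSB or PPIA and DMSO (2^−ΔΔCt), scaled to set ΔCt assay window; IC50 from 4-parameter fit of CJ decrease.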

Compound | Effect of Exemplary Compounds on Cell Viability, K562 (K562 cells) | pIC50 (SMN2 mRNA) | pIC50 (Target C)
Cc1nc2c(C)c(O)c(-c3ccc4nc(N5CC[C@H](N[C@H]6C[C@H](F)C6)C5)ccc4n3)cc2o1 (single isomer, unassigned) [Compound 351] | B (B represents 100-1000 nM) | > 7.00 | > 7.00
Cc1nc2c(C)c(O)c(-c3ccc4nc(N5CC[C@@H](N[C@H]6C[C@H](F)C6)C5)ccc4n3)cc2o1 (single isomer, unassigned) [Compound 352] | B (B represents 100-1000 nM) | > 7.00 | > 7.00
Cc1nc2c(F)c(O)c(-c3ccc4nc(N5CC[C@@H](NC6(C)CC6)C5)ccc4n3)cc2o1 (stereo in doubt) [Compound 326, 4-fluoro-2-methyl-6-{6-[(3 S)-3-[(1-methylcyclopropyl)amino]pyrrolidin-1-yl]-1,5-naphthyridin-2-yl}-1,3-benzoxazol-5-ol] | A (A represents <100 nM) | > 7.00 | > 7.00
Cc1nc2c(F)c(O)c(-c3ccc4nc(N5CCC(NC6(C)CC6)C5)ccc4n3)cc2o1 (stereo in doubt) [Compound 327, 4-fluoro-2-methyl-6-{6-[(3R)-3-[(1-methylcyclopropyl)amino]pyrrolidin-1-yl]-1,5-naphthyridin-2-yl}-1,3-benzoxazol-5-ol] | B (B represents 100-1000 nM) | > 7.00 | > 7.00
Cc1nc2c(C)c(O)c(-c3ccc4nc(N5CC[C@H](NC(C)(C)C)C5)ccc4n3)cc2o1 [Compound 214] | A (A represents <100 nM) | > 7.00 | > 7.00
Cc1nc2c(C)c(O)c(-c3ccc4nc(N5CC[C@H](NC6CC6)C5)ccc4n3)cc2o1 [Compound 216] | B (B represents 100-1000 nM) | > 7.00 | > 7.00
Cc1nc2c(C)c(O)c(-c3ccc4nc(N5CC[C@@H](NC6CC6)C5)ccc4n3)cc2o1 [Compound 217] | B (B represents 100-1000 nM) | > 7.00 | > 7.00
Cn1cc2cc(-c3ccc4nc(N5CCC(NC6(C)CC6)C5)ccc4n3)c(O)cc2n1 (stereo not drawn) [Compound 219] | A (A represents <100 nM) | > 7.00 | > 7.00
Cc1nc2cc(O)c(-c3ccc4nc(N5CC[C@@H](NC6CCC6)C5)ccc4n3)cc2o1 [Compound 229] | B (B represents 100-1000 nM) | > 7.00 | 6.00 to 7.00
Cc1nc2cc(O)c(-c3ccc4nc(N5CC[C@H](NC6CCC6)C5)ccc4n3)cc2o1 [Compound 230] | B (B represents 100-1000 nM) | > 7.00 | 6.00 to 7.00
Cc1nc2cc(O)c(-c3ccc4nc(N5CCC(NC(C)C)C5)ccc4n3)cc2o1 (stereo not drawn) [Compound 231] | A (A represents <100 nM) | > 7.00 | > 7.00
Cc1nc2c(C)c(O)c(-c3ccc4nc(N5CCC(NC6CCC6)C5)ccc4n3)cc2o1 (stereo not drawn) [Compound 235] | B (B represents 100-1000 nM) | > 7.00 | 6.00 to 7.00
Cc1nc2c(C)c(O)c(-c3ccc4nc(N5CC[C@@H](NC6CCC6)C5)ccc4n3)cc2o1 [Compound 236] | B (B represents 100-1000 nM) | > 7.00 | 6.00 to 7.00
Cc1nc2c(C)c(O)c(-c3ccc4nc(N5CC[C@H](NC6CCC6)C5)ccc4n3)cc2o1 [Compound 237] | B (B represents 100-1000 nM) | > 7.00 | > 7.00
Cc1cc(-c2ccc3nc(N4CCC(NC(C)(C)C)C4)ccc3n2)nc2cn(C)nc12 (stereo not drawn) [Compound 248] | C (C represents 1000-9999 nM) | 6.00 to 7.00 | 5.00 to 6.00
Cc1c(O)c(-c2ccc3nc(N4CC[C@@H](NC(C)(C)C)C4)ccc3n2)cc2cn(C)nc12 [Compound 249] | A (A represents <100 nM) | > 7.00 | > 7.00

Compound | Effect of Exemplary Compounds on Cell Viability, K562 (K562 cells) | pIC50 (SMN2 mRNA) | pIC50 (Target C)
Cc1c(O)c(-c2ccc3nc(N4CC[C@H](NC(C)(C)C)C4)ccc3n2)cc2cn(C)nc12 [Compound 250] | B (B represents 100-1000 nM) | > 7.00 | > 7.00
COc1c(-c2ccc3nc(N4CCC(NC(C)(C)C)C4)ccc3n2)cc2c[nH]nc2c1C (stereo not drawn) [Compound 251] | B (B represents 100-1000 nM) | < 5.00 | < 5.00
Cc1c(O)c(-c2ccc3nc(N4CCC(NCC5CC5)C4)ccc3n2)cc2cn(C)nc12 (stereo not drawn) [Compound 284, 5-(6-{3-[(cyclopropylmethyl)amino]pyrrolidin-1-yl}-1,5-naphthyridin-2-yl)-2,7-dimethylindazol-6-ol] | B (B represents 100-1000 nM) | > 7.00 | 6.00 to 7.00
Cc1c(O)c(-c2ccc3nc(N4CCC(NC5CCC5)C4)ccc3n2)cc2cn(C)nc12 (stereo not drawn) [Compound 288, 5-{6-[3-(cyclobutylamino)pyrrolidin-1-yl]-1,5-naphthyridin-2-yl}-2,7-dimethylindazol-6-ol] | B (B represents 100-1000 nM) | > 7.00 | 6.00 to 7.00
Cc1nc2c(F)c(O)c(-c3ccc4nc(N5CCC(NC6CCC6)C5)ccc4n3)cc2o1 (stereo not drawn) [Compound 293, 6-{6-[3-(cyclobutylamino)pyrrolidin-1-yl]-1,5-naphthyridin-2-yl}-4-fluoro-2-methyl-1,3-benzoxazol-5-ol] | A (A represents <100 nM) | > 7.00 | > 7.00
Cn1cc2cc(-c3ccc4nc(N5CCC(NC67CC(C6)C7)C5)ccc4n3)c(O)cc2n1 (stereo not drawn) [Compound 297, 5-[6-(3-{bicyclo[1.1.1]pentan-1-ylamino}pyrrolidin-1-yl)-1,5-naphthyridin-2-yl]-2-methylindazol-6-ol] | D (D represents greater than 10 μM in K562 cells) | 6.00 to 7.00 | < 5.00
Cn1cc2nc(-c3ccc4nc(N5CCC(NC(C)(C)C)C5)ccc4n3)c(O)cc2n1 (stereo not drawn) [Compound 298, 5-{6-[3-(tert-butylamino)pyrrolidin-1-yl]-1,5-naphthyridin-2-yl}-2-methylpyrazolo[4,3-b]pyridin-6-ol] | B (B represents 100-1000 nM) | > 7.00 | 6.00 to 7.00
Cn1cc2cc(-c3ccc4nc(N5CC[C@H](N[C@H]6C[C@@H](F)C6)C5)ccc4n3)c(O)cc2n1 [Compound 299, 2-methyl-5-{6-[(3S)-3-{[(1s,3s)-3-fluorocyclobutyl]amino}pyrrolidin-1-yl]-1,5-naphthyridin-2-yl}indazol-6-ol] | B (B represents 100-1000 nM) | > 7.00 | 5.00 to 6.00
Cc1c(O)c(-c2ccc3nc(N4CCC(NC5COC5)C4)ccc3n2)cc2cn(C)nc12 (stereo not drawn) [Compound 302, 2,7-dimethyl-5-{6-[3-(oxetan-3-ylamino)pyrrolidin-1-yl]-1,5-naphthyridin-2-yl}Indazol-6-ol] | C (C represents 1000-9999 nM) | > 7.00 | 5.00 to 6.00
Cc1nc2c(C)c(O)c(-c3ccc4nc(N5CCC(NC6(C)CC6)C5)ccc4n3)cc2o1 (stereo not drawn) [Compound 309, 2,4-dimethyl-6-(6-{3-[(1-methylcyclopropyl)amino]pyrrolidin-1-yl}-1,5-naphthyridin-2-yl)-1,3-benzoxazol-5-ol] | B (B represents 100-1000 nM) | > 7.00 | > 7.00
Cc1nc2c(C)c(O)c(-c3ccc4nc(N5CCC(NC(C)C)C5)ccc4n3)cc2o1 (stereo not drawn) [Compound 312, 6-{6-[3-(isopropylamino)pyrrolidin-1-yl]-1,5-naphthyridin-2-yl}-2,4-dimethyl-1,3-benzoxazol-5-ol] | A (A represents <100 nM) | > 7.00 | > 7.00
Cn1cc2cc(-c3ccc4nc(N5CCC(NC6CCC6)C5)ccc4n3)c(O)c(F)c2n1 (stereo not drawn) [Compound 315, 5-{6-[3-(cyclobutylamino)pyrrolidin-1-yl]-1,5-naphthyridin-2-yl}-7-fluoro-2-methylindazol-6-ol] | A (A represents <100 nM) | > 7.00 | > 7.00
Cc1c(O)c(-c2ccc3nc(N4CCC(NC(C)C)C4)ccc3n2)cc2cn(C)nc12 (stereo not drawn) [Compound 318, 5-{6-[3-(isopropylamino)pyrrolidin-1-yl]-1,5-naphthyridin-2-yl}-2,7-dimethylindazol-6-ol] | A (A represents <100 nM) | > 7.00 | > 7.00
Cc1c(O)c(-c2ccc3nc(N4CC[C@H](NC(C)C)C4)ccc3n2)cc2cn(C)nc12 [Compound 320] | B (B represents 100-1000 nM) | > 7.00 | > 7.00
Cc1nc2c(F)c(O)c(-c3ccc4nc(N5CCC(NC6(C)CC6)C5)ccc4n3)cc2o1 (stereo not drawn) [Compound 325, 4-fluoro-2-methyl-6-(6-{3-[(1-methylcyclopropyl)amino]pyrrolidin-1-yl}-1,5-naphthyridin-2-yl)-1,3-benzoxazol-5-ol] | B (B represents 100-1000 nM) | > 7.00 | > 7.00
